The results in this text go back to patent US20020098211A1, “ANTIMICROBIAL AGENT AND USES THEREOF, IN PARTICULAR IN COSMETICS AND DERMATOLOGY” (priority 1998, published 2002).

The experiment deals with Enterococcus faecalis (American Type Culture Collection No. 33186). Kind of experiment: Antimicrobial (preservation) challenge test, count of surviving microorganisms in the inoculated product.

Method: Bacterium: Enterococcus faecalis (American Type Culture Collection No. 33186), cultured on soybean Trypticase Yeast: Candida albicans (American Type Culture Collection No. 10231), cultured on Sabouraud.
Inoculum preparation: tryptone-salt diluent
Counting: Eugon LT100 agar broth
On the evening before the test, each microbial strain is plated out on the appropriate agar medium and incubated in an oven at 35° C.
On the day of the test, 20 grams of the product are weighed out in a sterile pill box. Inoculation is carried out at a concentration of 1% using a microbial suspension with a titre of 108 microorganisms per ml: a concentration of 106 is obtained in the product. The contaminated sample is incubated in an oven at 22° C.
After incubation for 7 days, 1 gram of product is taken and tenfold dilutions are carried out in Eugon LT100 broth, and these dilutions are plated out on the surface of Petri dishes containing Eugon LT100 agar. The dishes are incubated at 35° C.
The colonies are counted on the dishes containing more than 20 and less than 200 colonies.

As for `CCCCCCCC(=O)OC(C)C(=O)OC(C)C(=O)[O-].[Na+]` (stereo not shown) [Sodium capryl lactyl lactylate, sodium capryl lactyl lactylate], the “number of microorganisms per gram of preparation, remaining in the product after 7 days of contact” value (Table 5, single agent at 1%) is on record as 1.5 × 10^4 microorganisms per gram of preparation.

Turning to `CCCC(O)CO` (stereo not shown) [pentanediol, 1,2-pentanediol], the “number of microorganisms per gram of preparation, remaining in the product after 7 days of contact” value (Table 5, single agent at 3%) is recorded as 2.3 × 10^5 microorganisms per gram of preparation.

In the case of `CC(O)CCO` (stereo not shown) [Butanediol, butanediol], for the setting “Table 5, single agent at 3%”, the “number of microorganisms per gram of preparation, remaining in the product after 7 days of contact” value was 4.0 × 10^5 microorganisms per gram of preparation.

With `CCCCCCC(O)CO` (stereo not shown) [Octanediol, 1,2-octanediol], the “number of microorganisms per gram of preparation, remaining in the product after 7 days of contact” value (Table 5, single agent at 0.25%) is given as 3.7 × 10^5 microorganisms per gram of preparation.
